{"source": "the supplement of paper PMC11208160", "data": [{"experiment": "recombinant barcode read abundance after kanamycin selection (control-corrected) (log10(CPM+1)); higher = more efficient recombination; sequences stand for … in AGTGCAGAGAAAATCGGCCAGTTTTCTCTGCCTGCAGTCCGCATGCCGT…AGATTTATGCAGCGGACTGCCTTTCTCCCAAAGTGATAAACCGGACAGTATCATGGACCGGTTTTCCCGGTAATCCGTATTTGCAAGGTTGGTTTCACT; site = the 11-nt target", "outline": "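Each value is log10(CPM+1). It describes recombination efficiency, taken as averaged, control-corrected counts per million of barcodes at recombinant junctions. The pooled E. coli library paired targets with IS621 bridge RNA target-binding loops, was co-electroporated with a donor plasmid, and was plated twice on chloramphenicol/ampicillin LB agar (control) and twice on chloramphenicol/ampicillin/kanamycin containing 0.1 mM IPTG.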", "values": [{"sequence": "GCTCAGACTTGGGTTCTAACCTGTTGCCT (site GCTCAGTCTAG)", "recombinant barcode read abundance (log10)": 0.0442}, {"sequence": "GCTCCTACTTGGGTTCTAACCTGTTGCCT (site GATCCTACTAG)", "recombinant barcode read abundance (log10)": 0.118}, {"sequence": "GCTCCTACTTGGGTTCTAACCTGTTGCCT (site GCTCCTACTAG)", "recombinant barcode read abundance (log10)": 0.0272}, {"sequence": "GCTCCTACTTGGGTTCTAACCTGTTGCCT (site GGTCCTACTAG)", "recombinant barcode read abundance (log10)": 0.48}, {"sequence": "GCTCCTACTTGGGTTCTAACCTGTTGCCT (site GTTCCTACTAG)", "recombinant barcode read abundance (log10)": 0.108}, {"sequence": "GCTCGGGCTTGGGTTCTAACCTGTTGCGG (site ATGTCCTCTTG)", "recombinant barcode read abundance (log10)": 0.0124}, {"sequence": "GCTCGGGCTTGGGTTCTAACCTGTTGCGG (site GCTCGGGCTCC)", "recombinant barcode read abundance (log10)": 2.6}, {"sequence": "GCTCTAGCTTGGGTTCTAACCTGTTGCCT (site GCACAAGCTAG)", "recombinant barcode read abundance (log10)": 0.0696}, {"sequence": "GCTCTAGCTTGGGTTCTAACCTGTTGCCT (site GCTCTAGCTAG)", "recombinant barcode read abundance (log10)": 0.0295}, {"sequence": "GCTGAGACTTGGGTTCTAACCTGTTGCGT (site CTCTGTCCTCA)", "recombinant barcode read abundance (log10)": 0.237}, {"sequence": "GCTGAGACTTGGGTTCTAACCTGTTGCGT (site GCTGAGACTAC)", "recombinant barcode read abundance (log10)": 2.04}, {"sequence": "GCTGAGGCTTGGGTTCTAACCTGTTGCTG (site GCTGAGGCTCA)", "recombinant barcode read abundance (log10)": 1.05}, {"sequence": "GCTGAGGCTTGGGTTCTAACCTGTTGCTG (site TCTGAGTCTCA)", "recombinant barcode read abundance (log10)": 0.256}, {"sequence": "GCTGGGTCTTGGGTTCTAACCTGTTGCCT (site GATGGGTCTAG)", "recombinant barcode read abundance (log10)": 0.0435}, {"sequence": "GCTGGGTCTTGGGTTCTAACCTGTTGCCT (site GCTGGGTCTAG)", "recombinant barcode read abundance (log10)": 0.814}, {"sequence": "GCTTACCCTTGGGTTCTAACCTGTTGCTA (site GCTTACCCTTA)", "recombinant barcode read abundance (log10)": 0.36}, {"sequence": "GCTTACCCTTGGGTTCTAACCTGTTGCTA (site TAGCTAGCTAC)", "recombinant barcode read abundance (log10)": 0.0382}, {"sequence": "GCTTCGGCTTGGGTTCTAACCTGTTGCCT (site GCATCGGCTAG)", "recombinant barcode read abundance (log10)": 0.193}, {"sequence": "GCTTCGGCTTGGGTTCTAACCTGTTGCCT (site GCCTCGGCTAG)", "recombinant barcode read abundance (log10)": 0.0138}, {"sequence": "GCTTCGGCTTGGGTTCTAACCTGTTGCCT (site GCGTCGGCTAG)", "recombinant barcode read abundance (log10)": 0.0514}, {"sequence": "GCTTCGGCTTGGGTTCTAACCTGTTGCCT (site GCTTCGGCTAG)", "recombinant barcode read abundance (log10)": 0.282}, {"sequence": "GCTTGAACTTGGGTTCTAACCTGTTGCTT (site GCTTGAACTAA)", "recombinant barcode read abundance (log10)": 0.292}, {"sequence": "GCTTGAACTTGGGTTCTAACCTGTTGCTT (site GGTTGAACTAT)", "recombinant barcode read abundance (log10)": 0.0501}, {"sequence": "GCTTGGCCTTGGGTTCTAACCTGTTGCCT (site CCTTGGTCTAG)", "recombinant barcode read abundance (log10)": 0.211}, {"sequence": "GCTTGGCCTTGGGTTCTAACCTGTTGCCT (site GCTTGGCCTAG)", "recombinant barcode read abundance (log10)": 0.188}, {"sequence": "GCTTGGTCTTGGGTTCTAACCTGTTGCGA (site CTAGCTCCTAA)", "recombinant barcode read abundance (log10)": 0.173}, {"sequence": "GCTTGGTCTTGGGTTCTAACCTGTTGCGA (site GCTTGGTCTTC)", "recombinant barcode read abundance (log10)": 1.57}, {"sequence": "GGAAAGACTTGGGTTCTAACCTGTTGCCT (site GGAAAGACTAG)", "recombinant barcode read abundance (log10)": 1.58}, {"sequence": "GGAAAGACTTGGGTTCTAACCTGTTGCCT (site GGCAAGACTAG)", "recombinant barcode read abundance (log10)": 0.18}, {"sequence": "GGAAAGACTTGGGTTCTAACCTGTTGCCT (site GGGAAGACTAG)", "recombinant barcode read abundance (log10)": 0.297}, {"sequence": "GGAAAGACTTGGGTTCTAACCTGTTGCCT (site GGTAAGACTAG)", "recombinant barcode read abundance (log10)": 0.505}, {"sequence": "GGAAGCTCTTGGGTTCTAACCTGTTGCTT (site GGAAGCTCTAA)", "recombinant barcode read abundance (log10)": 0.591}, {"sequence": "GGAAGCTCTTGGGTTCTAACCTGTTGCTT (site GTACGCTCTAA)", "recombinant barcode read abundance (log10)": 0.0116}, {"sequence": "GGAAGGTCTTGGGTTCTAACCTGTTGCAT (site ACGTCCACTTG)", "recombinant barcode read abundance (log10)": 0.0537}, {"sequence": "GGAAGGTCTTGGGTTCTAACCTGTTGCAT (site GGAAGGTCTAT)", "recombinant barcode read abundance (log10)": 1.98}, {"sequence": "GGAATGACTTGGGTTCTAACCTGTTGCCT (site GAAATGACTAG)", "recombinant barcode read abundance (log10)": 0.344}, {"sequence": "GGAATGACTTGGGTTCTAACCTGTTGCCT (site GCAATGACTAG)", "recombinant barcode read abundance (log10)": 0.726}, {"sequence": "GGAATGACTTGGGTTCTAACCTGTTGCCT (site GGAATGACTAG)", "recombinant barcode read abundance (log10)": 2.02}, {"sequence": "GGAATGACTTGGGTTCTAACCTGTTGCCT (site GTAATGACTAG)", "recombinant barcode read abundance (log10)": 0.545}, {"sequence": "GGACCATCTTGGGTTCTAACCTGTTGCCT (site GGACAATCTAG)", "recombinant barcode read abundance (log10)": 0.29}, {"sequence": "GGACCATCTTGGGTTCTAACCTGTTGCCT (site GGACCATCTAG)", "recombinant barcode read abundance (log10)": 0.915}, {"sequence": "GGACCATCTTGGGTTCTAACCTGTTGCCT (site GGACGATCTAG)", "recombinant barcode read abundance (log10)": 0.146}, {"sequence": "GGACCATCTTGGGTTCTAACCTGTTGCCT (site GGACTATCTAG)", "recombinant barcode read abundance (log10)": 0.276}, {"sequence": "GGACCCTCTTGGGTTCTAACCTGTTGCCT (site AGACCCTCTAG)", "recombinant barcode read abundance (log10)": 1.09}, {"sequence": "GGACCCTCTTGGGTTCTAACCTGTTGCCT (site CGACCCTCTAG)", "recombinant barcode read abundance (log10)": 0.406}, {"sequence": "GGACCCTCTTGGGTTCTAACCTGTTGCCT (site GGACCCTCTAG)", "recombinant barcode read abundance (log10)": 1.96}, {"sequence": "GGACCCTCTTGGGTTCTAACCTGTTGCCT (site TGACCCTCTAG)", "recombinant barcode read abundance (log10)": 0.353}, {"sequence": "GGACCTCCTTGGGTTCTAACCTGTTGCAT (site GGACCTCCTAA)", "recombinant barcode read abundance (log10)": 0.342}, {"sequence": "GGACCTCCTTGGGTTCTAACCTGTTGCAT (site GGACCTCCTAC)", "recombinant barcode read abundance (log10)": 0.805}, {"sequence": "GGACCTCCTTGGGTTCTAACCTGTTGCAT (site GGACCTCCTAG)", "recombinant barcode read abundance (log10)": 0.0883}, {"sequence": "GGACCTCCTTGGGTTCTAACCTGTTGCAT (site GGACCTCCTAT)", "recombinant barcode read abundance (log10)": 1.96}, {"sequence": "GGACCTCCTTGGGTTCTAACCTGTTGCGT (site GGACCTCCTAA)", "recombinant barcode read abundance (log10)": 0.503}, {"sequence": "GGACCTCCTTGGGTTCTAACCTGTTGCGT (site GGACCTCCTAC)", "recombinant barcode read abundance (log10)": 3.05}, {"sequence": "GGACCTCCTTGGGTTCTAACCTGTTGCGT (site GGACCTCCTAG)", "recombinant barcode read abundance (log10)": 0.272}, {"sequence": "GGACCTCCTTGGGTTCTAACCTGTTGCGT (site GGACCTCCTAT)", "recombinant barcode read abundance (log10)": 1.71}, {"sequence": "GGACGATCTTGGGTTCTAACCTGTTGCCT (site GGACAATCTAG)", "recombinant barcode read abundance (log10)": 0.471}, {"sequence": "GGACGATCTTGGGTTCTAACCTGTTGCCT (site GGACCATCTAG)", "recombinant barcode read abundance (log10)": 0.0164}, {"sequence": "GGACGATCTTGGGTTCTAACCTGTTGCCT (site GGACGATCTAG)", "recombinant barcode read abundance (log10)": 1.54}, {"sequence": "GGACGATCTTGGGTTCTAACCTGTTGCCT (site GGACTATCTAG)", "recombinant barcode read abundance (log10)": 0.357}, {"sequence": "GGACGCGCTTGGGTTCTAACCTGTTGCGG (site GGACGCGCTCC)", "recombinant barcode read abundance (log10)": 2.43}, {"sequence": "GGACGCGCTTGGGTTCTAACCTGTTGCGG (site GGGCCCGCTCC)", "recombinant barcode read abundance (log10)": 0.075}, {"sequence": "GGACGGCCTTGGGTTCTAACCTGTTGCCT (site GGACGACCTAG)", "recombinant barcode read abundance (log10)": 0.523}, {"sequence": "GGACGGCCTTGGGTTCTAACCTGTTGCCT (site GGACGCCCTAG)", "recombinant barcode read abundance (log10)": 0.133}, {"sequence": "GGACGGCCTTGGGTTCTAACCTGTTGCCT (site GGACGGCCTAG)", "recombinant barcode read abundance (log10)": 1.35}, {"sequence": "GGACGGCCTTGGGTTCTAACCTGTTGCCT (site GGACGTCCTAG)", "recombinant barcode read abundance (log10)": 0}, {"sequence": "GGAGAAGCTTGGGTTCTAACCTGTTGCCT (site GGAGAAGCTAG)", "recombinant barcode read abundance (log10)": 2.11}, {"sequence": "GGAGAAGCTTGGGTTCTAACCTGTTGCCT (site GGAGACGCTAG)", "recombinant barcode read abundance (log10)": 0.569}, {"sequence": "GGAGAAGCTTGGGTTCTAACCTGTTGCCT (site GGAGAGGCTAG)", "recombinant barcode read abundance (log10)": 1.15}, {"sequence": "GGAGAAGCTTGGGTTCTAACCTGTTGCCT (site GGAGATGCTAG)", "recombinant barcode read abundance (log10)": 0.158}, {"sequence": "GGAGCTTCTTGGGTTCTAACCTGTTGCCT (site GGAGCTTCTAG)", "recombinant barcode read abundance (log10)": 1.33}, {"sequence": "GGAGCTTCTTGGGTTCTAACCTGTTGCCT (site GTACCTTCTAG)", "recombinant barcode read abundance (log10)": 0.256}, {"sequence": "GGAGGTCCTTGGGTTCTAACCTGTTGCCG (site ACTCAGACTGT)", "recombinant barcode read abundance (log10)": 0.161}, {"sequence": "GGAGGTCCTTGGGTTCTAACCTGTTGCCG (site GGAGGTCCTCG)", "recombinant barcode read abundance (log10)": 1.79}, {"sequence": "GGAGTCCCTTGGGTTCTAACCTGTTGCGA (site GGAGTCCCTTC)", "recombinant barcode read abundance (log10)": 2.39}, {"sequence": "GGAGTCCCTTGGGTTCTAACCTGTTGCGA (site GGATTCCCTTG)", "recombinant barcode read abundance (log10)": 0.0458}, {"sequence": "GGATACACTTGGGTTCTAACCTGTTGCCA (site GGATACACTTG)", "recombinant barcode read abundance (log10)": 1.35}, {"sequence": "GGATACACTTGGGTTCTAACCTGTTGCCA (site GGATCCACTTG)", "recombinant barcode read abundance (log10)": 0.041}, {"sequence": "GGATACACTTGGGTTCTAACCTGTTGCCA (site GGATGCACTTG)", "recombinant barcode read abundance (log10)": 0.0123}, {"sequence": "GGATACACTTGGGTTCTAACCTGTTGCCA (site GGATTCACTTG)", "recombinant barcode read abundance (log10)": 0.274}, {"sequence": "GGATGGACTTGGGTTCTAACCTGTTGCTT (site GGATAGCCTAA)", "recombinant barcode read abundance (log10)": 0.0315}, {"sequence": "GGATGGACTTGGGTTCTAACCTGTTGCTT (site GGATGGACTAA)", "recombinant barcode read abundance (log10)": 1.96}, {"sequence": "GGCAAACCTTGGGTTCTAACCTGTTGCGG (site CATGGGACTAT)", "recombinant barcode read abundance (log10)": 0.0629}, {"sequence": "GGCAAACCTTGGGTTCTAACCTGTTGCGG (site GGCAAACCTCC)", "recombinant barcode read abundance (log10)": 2.09}, {"sequence": "GGCAACTCTTGGGTTCTAACCTGTTGCCT (site AAGTTAGCTCC)", "recombinant barcode read abundance (log10)": 0}, {"sequence": "GGCAACTCTTGGGTTCTAACCTGTTGCCT (site GGCAACTCTAG)", "recombinant barcode read abundance (log10)": 0.0853}, {"sequence": "GGCACCGCTTGGGTTCTAACCTGTTGCCT (site GGCACAGCTAG)", "recombinant barcode read abundance (log10)": 0.0859}]}]}
